Test results published in ChEMBL document CHEMBL1201862, “PubChem BioAssay data set” (2004).
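Briefly, cells in 96-well plates were exposed to five compound concentrations for 48 h, and endpoints were estimated by linear interpolation. Here, GI50 denotes the concentration required for 50% inhibition of growth.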 The source made the active and inactive calls. Cut-off read from the data, not from the text of the source: active = GI50 up to about 1.1 µM and inactive = higher.

Columns and labels:
Assay in all cases: NCI anticancer screen, dose series, 48 h
[1] = tested on: 786-0
[2] = tested on: A498
[3] = tested on: A549
[4] = tested on: ACHN
[5] = tested on: BT-549
[6] = tested on: CAKI-1
[7] = tested on: CCRF-CEM
[8] = tested on: COLO 205
[9] = tested on: DU-145
[10] = tested on: EKVX
[11] = tested on: HCC 2998
[12] = tested on: HCT-116
[13] = tested on: HCT-15
[14] = tested on: HOP-62
[15] = tested on: HT-29
[16] = tested on: Hs-578T
[17] = tested on: IGROV-1
[18] = tested on: K562
[19] = tested on: KM12
[20] = tested on: LOX IMVI
[21] = tested on: M14
[22] = tested on: MCF7
[23] = tested on: MDA-MB-231
[24] = tested on: MDA-MB-435
[25] = tested on: MDA-N
[26] = tested on: MOLT-4
[27] = tested on: Malme-3M
[28] = tested on: NCI-H226
[29] = tested on: NCI-H23
[30] = tested on: NCI-H522
[31] = tested on: NCI/ADR-RES
[32] = tested on: OVCAR-3
[33] = tested on: OVCAR-4
[34] = tested on: OVCAR-5
[35] = tested on: OVCAR-8
[36] = tested on: PC-3
[37] = tested on: RPMI-8226
[38] = tested on: RXF 393
[39] = tested on: SF-268
[40] = tested on: SF-295
[41] = tested on: SK-MEL-28
[42] = tested on: SK-MEL-2
[43] = tested on: SK-MEL-5
[44] = tested on: SK-OV-3
[45] = tested on: SN12C
[46] = tested on: SNB-19
[47] = tested on: SNB-75
[48] = tested on: SR
[49] = tested on: SW-620
[50] = tested on: T47D
[51] = tested on: TK-10
[52] = tested on: U-251
[53] = tested on: UACC-257
[54] = tested on: UACC-62
[55] = tested on: UO-31
[56] = tested on: HL-60
[57] = tested on: NCI-H460

NNC(=O)C(O)C(O)C(=O)NN (stereo not given)
GI50 [1]: 98.4 µM (inactive) | GI50 [2]: > 100 µM (inactive) | GI50 [3]: 66.4 µM (inactive) | GI50 [4]: > 100 µM (inactive) | GI50 [5]: > 100 µM (inactive) | GI50 [6]: > 100 µM (inactive) | GI50 [7]: > 100 µM (inactive) | GI50 [8]: > 100 µM (inactive) | GI50 [9]: > 100 µM (inactive) | GI50 [10]: > 100 µM (inactive) | GI50 [11]: > 100 µM (inactive) | GI50 [12]: 73.3 µM (inactive) | GI50 [13]: > 100 µM | GI50 [14]: > 100 µM (inactive) | GI50 [15]: > 100 µM (inactive) | GI50 [16]: > 100 µM (inactive) | GI50 [17]: > 100 µM (inactive) | GI50 [18]: 36.1 µM (inactive) | GI50 [19]: > 100 µM (inactive) | GI50 [20]: 65.9 µM (inactive) | GI50 [21]: > 100 µM (inactive) | GI50 [22]: > 100 µM (inactive) | GI50 [23]: > 100 µM (inactive) | GI50 [24]: > 100 µM (inactive) | GI50 [25]: > 100 µM (inactive) | GI50 [26]: 64.3 µM (inactive) | GI50 [27]: > 100 µM (inactive) | GI50 [28]: > 100 µM (inactive) | GI50 [29]: > 100 µM (inactive) | GI50 [30]: 54.5 µM (inactive) | GI50 [31]: > 100 µM (inactive) | GI50 [32]: > 100 µM (inactive) | GI50 [33]: > 100 µM (inactive) | GI50 [34]: > 100 µM (inactive) | GI50 [35]: > 100 µM (inactive) | GI50 [36]: > 100 µM (inactive) | GI50 [37]: > 100 µM (inactive) | GI50 [38]: > 100 µM (inactive) | GI50 [39]: > 100 µM (inactive) | GI50 [40]: > 100 µM (inactive) | GI50 [41]: > 100 µM (inactive) | GI50 [42]: > 100 µM (inactive) | GI50 [43]: > 100 µM (inactive) | GI50 [44]: > 100 µM (inactive) | GI50 [45]: > 100 µM (inactive) | GI50 [46]: > 100 µM (inactive) | GI50 [47]: > 100 µM (inactive) | GI50 [48]: 57.5 µM (inactive) | GI50 [49]: > 100 µM (inactive) | GI50 [50]: > 100 µM (inactive) | GI50 [51]: > 100 µM (inactive) | GI50 [52]: > 100 µM (inactive) | GI50 [53]: > 100 µM (inactive) | GI50 [54]: > 100 µM (inactive) | GI50 [55]: > 100 µM (inactive)

CN(C)CCc1ccnc2nc(-c3ccc4ccccc4c3)cn12
GI50 [1]: 25 µM (inactive) | GI50 [3]: > 100 µM (inactive) | GI50 [4]: 29.4 µM (inactive) | GI50 [5]: 23.4 µM (inactive) | GI50 [6]: 35.2 µM (inactive) | GI50 [7]: 33.3 µM (inactive) | GI50 [8]: 33.3 µM (inactive) | GI50 [9]: 45.2 µM (inactive) | GI50 [10]: 38 µM (inactive) | GI50 [11]: 18.5 µM (inactive) | GI50 [12]: 31.7 µM (inactive) | GI50 [13]: 34.6 µM | GI50 [56]: 36.9 µM (inactive) | GI50 [14]: 56.9 µM (inactive) | GI50 [15]: 17.8 µM (inactive) | GI50 [16]: 17.8 µM (inactive) | GI50 [17]: 23.9 µM (inactive) | GI50 [18]: 79.8 µM (inactive) | GI50 [19]: 18.1 µM (inactive) | GI50 [20]: 25 µM (inactive) | GI50 [21]: 47.8 µM (inactive) | GI50 [22]: 34.7 µM (inactive) | GI50 [23]: 28.8 µM (inactive) | GI50 [24]: 33.3 µM (inactive) | GI50 [25]: 29.6 µM (inactive) | GI50 [26]: 35.2 µM (inactive) | GI50 [27]: 96.4 µM (inactive) | GI50 [28]: 27.8 µM (inactive) | GI50 [29]: 20.4 µM (inactive) | GI50 [57]: 14.7 µM (inactive) | GI50 [30]: 12 µM (inactive) | GI50 [31]: 26.2 µM (inactive) | GI50 [32]: 25.8 µM (inactive) | GI50 [33]: 27.5 µM (inactive) | GI50 [34]: 47.1 µM (inactive) | GI50 [35]: 26.9 µM (inactive) | GI50 [36]: 33.7 µM (inactive) | GI50 [37]: > 100 µM (inactive) | GI50 [38]: 30.9 µM (inactive) | GI50 [39]: 23 µM (inactive) | GI50 [40]: 88.7 µM (inactive) | GI50 [41]: 45.6 µM (inactive) | GI50 [42]: > 100 µM (inactive) | GI50 [43]: 34.7 µM (inactive) | GI50 [44]: 38.5 µM (inactive) | GI50 [45]: 26.8 µM (inactive) | GI50 [46]: 69.2 µM (inactive) | GI50 [48]: 57.5 µM (inactive) | GI50 [49]: 21.4 µM (inactive) | GI50 [50]: 34.9 µM (inactive) | GI50 [51]: 15.7 µM (inactive) | GI50 [52]: 38.2 µM (inactive) | GI50 [53]: 36.3 µM (inactive) | GI50 [54]: 44.5 µM (inactive) | GI50 [55]: 52.6 µM (inactive)

COc1cc2ccnc3c2c(c1OC)N(C)C=C3
GI50 [1]: 17.2 µM (inactive) | GI50 [2]: 36.1 µM (inactive) | GI50 [3]: 17.7 µM (inactive) | GI50 [4]: 16.1 µM (inactive) | GI50 [5]: 33 µM (inactive) | GI50 [6]: 21.3 µM (inactive) | GI50 [8]: 20.5 µM (inactive) | GI50 [9]: 34.5 µM (inactive) | GI50 [10]: 23.2 µM (inactive) | GI50 [11]: 16.4 µM (inactive) | GI50 [12]: 11 µM (inactive) | GI50 [13]: 26.9 µM | GI50 [14]: 28.3 µM (inactive) | GI50 [16]: 29.3 µM (inactive) | GI50 [18]: 21.1 µM (inactive) | GI50 [19]: 25.9 µM (inactive) | GI50 [20]: 21.5 µM (inactive) | GI50 [21]: 26.3 µM (inactive) | GI50 [22]: 16.6 µM (inactive) | GI50 [23]: 29.1 µM (inactive) | GI50 [24]: 31.5 µM (inactive) | GI50 [25]: 19.1 µM (inactive) | GI50 [26]: 30 µM (inactive) | GI50 [28]: 21.2 µM (inactive) | GI50 [29]: 19.4 µM (inactive) | GI50 [57]: 14.6 µM (inactive) | GI50 [31]: 24.3 µM (inactive) | GI50 [32]: 29.4 µM (inactive) | GI50 [33]: 24.5 µM (inactive) | GI50 [34]: 33 µM (inactive) | GI50 [35]: 26.5 µM (inactive) | GI50 [36]: 31.9 µM (inactive) | GI50 [37]: 24.4 µM (inactive) | GI50 [38]: 25.1 µM (inactive) | GI50 [39]: 35.2 µM (inactive) | GI50 [40]: 20.2 µM (inactive) | GI50 [41]: 32.7 µM (inactive) | GI50 [42]: 23.1 µM (inactive) | GI50 [44]: 16.5 µM (inactive) | GI50 [45]: 30.4 µM (inactive) | GI50 [46]: 25.2 µM (inactive) | GI50 [47]: 33.6 µM (inactive) | GI50 [48]: 21.3 µM (inactive) | GI50 [49]: 29.6 µM (inactive) | GI50 [50]: 32.3 µM (inactive) | GI50 [51]: 35.3 µM (inactive) | GI50 [52]: 35.2 µM (inactive) | GI50 [53]: 34.4 µM (inactive) | GI50 [54]: 26.4 µM (inactive) | GI50 [55]: 14.2 µM (inactive)
